# Tests used:
# Assay type in all cases: cell-based
# [1] = tested on: K. pneumonia; assay: Rapid AST/MIC from positive blood culture by FM 1-43 staining, flow cytometry and spectral intensity ratio (SIR); conditions: 2-4 hours antibiotic exposure
# Method: (§1) In general, the method includes; blood culture centrifugation, bacterial antimicrobial exposure for 2 to 4 hours, bacteria staining with a single fluorescence dye followed by a flow cytometric measurement, and mathematical analysis.
# (§2) 31 positive blood cultures were obtained from Sheba Medical Center (Ramat-Gan, Israel) and tested for antimicrobial susceptibility with gentamicin and ampicillin antibiotics (Sigma-Aldrich, USA). […] As a positive control, a tube with bacterial sample solution (a) without antimicrobial agent. • h) All tubes were incubated at 37° C. • i) 2-4 hours from incubation initiation, 200 μl from each tube were transferred into a fresh tube, dyed with 2 μl of Synaptogreen or FM 1-43 (Sigma-Aldrich; Molecular Probes, respectively) and measured by a flow cytometer. The rest of the sample was further incubated for 16-20 hours and then was visually evaluated for growth.
# (§3) In order to quantify the influence of a certain antimicrobial exposure we define the spectral intensity ratio (SIR) as follows: […]
# (§4) The MIC is calculated by plotting the spectral intensity ratio (SIR) as a function of the antimicrobial concentration and approximating it to a step function in the form of […]
# [2] = tested on: 31 positive blood cultures (E. coli, K. pneumonia, A. baummanii, P. mirabilis, E. cloacae, Aeromonass spp., K. oxytoca); assay: Macro dilution reference method, positive blood cultures (visual growth after 16-20 hours); conditions: 31 strains from positive blood cultures
# Method: 31 positive blood cultures were obtained from Sheba Medical Center (Ramat-Gan, Israel) and tested for antimicrobial susceptibility with gentamicin and ampicillin antibiotics (Sigma-Aldrich, USA). A total of 62 positive blood samples-antibiotics combinations were tested. • a) Positive blood samples were received from Sheba Medical Center, 2 ml of each sample were centrifuged for 15 min at 24×g and Supernatants were diluted 1:1000 with Cation-Adjusted Mueller Hinton Broth (CAMHB). • b) Antimicrobial stock solutions were prepared according to CLSI recommendations, and were diluted in CAMHB, to a concentration which was 2 fold higher from the highest concentration recommended for each antimicrobial combination (“Class II Special Controls Guidance Document: Antimicrobial Susceptibility Test (AST) Systems”, Aug. 28, 2009, FDA). • c) For each sample/antimicrobial combination, a set of tubes was prepared for which 1 ml of CAMHB medium was added, except for the first tube. • d) To each first tube of the set, 2 ml from the antimicrobial stock solution (b) was dispensed. • e) From the first tube a serial dilutions of 2 folds were prepared by transferring 1 ml of the solution to the next tube until the lowest required concentration by CLSI. 1 ml was discarded from the last tube in each set of tubes. • f) To each tube in the set, 1 ml of bacterial sample solution (a) was added. • g) For each serial dilutions set, two controls were added. As a negative control, a tube with 2 ml of CAMHB. As a positive control, a tube with bacterial sample solution (a) without antimicrobial agent. • h) All tubes were incubated at 37° C. • i) 2-4 hours from incubation initiation, 200 μl from each tube were transferred into a fresh tube, dyed with 2 μl of Synaptogreen or FM 1-43 (Sigma-Aldrich; Molecular Probes, respectively) and measured by a flow cytometer. The rest of the sample was further incubated for 16-20 hours and then was visually evaluated for growth.
# 62 samples (31 positive blood cultures and 2 antibiotics combination) were analyzed in triplicates. Each sample was measured by the flow cytometer and the MIC was calculated using the spectral intensity ratio (SIR) calculation and step function estimation. The bacteria identified within the samples were; E. coli (15 samples), K. pneumonia (6 samples), A. baummanii (4 samples), P. mirabilis (2 samples), E. cloacae (2 samples), Aeromonass spp. (1 sample), and K. oxytoca (1 sample).
# Tables 1 and 2 present the results of the positive blood sample experiment using the macro dilution as the reference method. […] There are no errors as defined by “Class II Special Controls Guidance Document: Antimicrobial Susceptibility Test (AST) Systems,” Aug. 28, 2009, FDA.
# [3] = tested on: E. coli; assay: Rapid AST/MIC from clinical isolates by FM 1-43 staining, flow cytometry and SIR; conditions: clinical isolate, 2-4 hours antibiotic treatment
# Method: (§5) Our method includes bacterial antimicrobial treatment for 2 to 4 hours, bacteria staining with a single fluorescence dye followed by a flow cytometric measurement, and mathematical analysis. The following paragraphs describe the method in details.
# (§6) A total of 90 isolates-antibiotics combinations were tested. • a) All strains were cultured onto 5% sheep blood agar (Hylabs, Israel), following overnight incubation, colonies were harvested and suspended in Phosphate Buffer Saline (PBS, Sigma-Aldrich). […] The rest of the sample was further incubated for 16-20 hours and then was visually evaluated for growth.
# (§7) In order to quantify the influence of a certain antimicrobial treatment, we define the spectral intensity ratio (SIR) as follows: […]
# (§8) The MIC is calculated by plotting the spectral intensity ratio (SIR) as a function of the antimicrobial concentration and approximating it to a step function in the form of
# (§9) Where a, b, and c are parameters and erf is the error function. The parameters are used to approximate the measured SIR to a step function; a is a scaling parameter, b determines the step slope, and c is the MIC value. […]
# [4] = tested on: C. freundii; assay: Rapid AST from clinical isolates by FM 1-43 staining, flow cytometry and SIR; conditions: clinical isolate, up to 32 μg/ml
# Method: as §5, §6, §7, §8, §9
# [5] = tested on: 30 clinical isolates of E. coli, K. pneumoniae, E. cloacae, P. mirabilis, and C. freundii; assay: Macro dilution reference method, clinical isolates (visual growth after 16-20 hours)
# Method: A total of 90 isolates-antibiotics combinations were tested. • a) All strains were cultured onto 5% sheep blood agar (Hylabs, Israel), following overnight incubation, colonies were harvested and suspended in Phosphate Buffer Saline (PBS, Sigma-Aldrich). […] 1 ml was discarded from the last tube in each set of tubes. • g) For each serial dilutions set, two controls were added. As a negative control, a tube with 2 ml of CAMHB. […] The rest of the sample was further incubated for 16-20 hours and then was visually evaluated for growth.
# [6] = tested on: E. coli; assay: Flow cytometry SIR/SDL dead/live analysis of FM1-43 stained bacteria under Gentamycin exposure; parameters: key to SIR: SIR = ratio of mean FL-3 (610 nm) to FL-1 (530 nm) fluorescence; conditions: for Dead % of This Plot / Live % of This Plot / SDL SIR * D/L / SIR: 120 minutes
# Method: In this Example, E. coli bacteria samples were incubated with Gentamycin in series dilution from 0 to 32 μgr/ml for 120 minutes. Post incubation the samples were stained with the dye FM1-43 and immediately measured by flow cytometry analysis on light scatter analysis for gating the bacteria and with fluorescence filters: λ1=530/30 and λ2=616/16 nm to analyze the SIR. Moreover gating of the Dead and live bacteria were determined.
# From such instant flow-cytometry analysis the SIR and SDL values are evaluated. While performing the same analysis over the whole antibiotic concentrations dilution series the SIR and SDL values were extracted to the concentration series, the data is summarized in Table 5. In Table 5, mean FL1-H and FL3-H is the average of the individual points in the bacteria gated population, i.e. of all measured bacteria. In other words, Fl-1 and FL-3 are merely the fluorescence intensity of each event (bacteria) per a certain fluorescence filter. By referring to FL-1 or FL-3 this means that the mean (average) values of all the events is calculated in the dot plot. FL-1 it is at 530 (±15) nm and FL-3 is at 610 (±10) nm. SIR, is the ratio of FL-3/FL-1. […] So, in order to obtain SIR all that is needed are the FL-3 and FL-1 mean values of the bacterial population in the dot plot. […] By using a predetermined gates, the number of dead and live bacteria can be counted, and then the ratio of dead to live can be calculated and multiplied by the SIR to obtain SDL. The gates are combination of FL-1 and FL-3 and predetermined by control live sample. Plotting SIR, SDL, and DL versus antibiotic concentration is represented in FIG. 15 as (labeled as “SIR”, “SDL”, and “DL”). In FIG. 15, SIR, SDL, and DL are all normalized to the maximum value in the series (column)/dataset and then to 100.
# From the data, we can determine the MIC by approximating the MIC as a function of antimicrobial concentration to an error function (FIG. 16) of the following type;
# The MIC is the value of the parameter c or a function of it. Specifically, the MIC gets the value of “c”. The value of “c” is the middle of the step in a regular step function of where the step function equals to zero when its values are normalized between −1 to 1.
# [7] = tested on: E. coli; assay: Micro dilution susceptibility test performed in parallel; conditions: after 12 hours of incubation
# [8] = tested on: E. coli; assay: Rapid AST from positive blood culture by FM 1-43 staining, flow cytometry and SIR; conditions: positive blood culture strain, 2-4 hours antibiotic exposure
# Method: as §1, §2, §3, §4
# [9] = 120 minutes incubation, FIG. 17A
# [10] = 120 minutes incubation, FIG. 17B
# [11] = Gentamycin 1 microg/ml (sub-MIC), listed as Gentamycin
# [12] = Gentamycin 1 microg/ml (sub-MIC), listed as gentamycin
# [13] = Gentamycin 8 microg/ml (over-MIC), listed as Gentamycin
# [14] = Gentamycin 8 microg/ml (over-MIC), listed as gentamycin
molecule,measurement,setting,value
gentamicin,MIC (SIR approximated to a step function),[1],1 µg/mL
same,Reference Method Susceptibilities I (number of strains),[2],0
same,Reference Method Susceptibilities R (number of strains),[2],10
same,Reference Method Susceptibilities S (number of strains),[2],21
same,MIC (SIR approximated to a step function),[3],2 µg/mL
same,susceptibility by SIR method,[4],resistant
same,Reference Method Susceptibilities I (number of strains),[5],4
same,Reference Method Susceptibilities R (number of strains),[5],5
same,Reference Method Susceptibilities S (number of strains),[5],21
same,MIC from SIR error function fit (c rounded up to power of 2),[6]; [9],8 μgr/ml
same,"value of c, error function fit of measured SIR",[6]; [9],4.63 μgr/ml
same,MIC from SDL error function fit (c rounded up to power of 2),[6]; [10],8 μgr/ml
same,"value of c, error function fit of measured SDL",[6]; [10],5.38 μgr/ml
same,Dead % of This Plot,[6]; Gentamycin 0.25 microg/ml,2.07%
same,Live % of This Plot,[6]; Gentamycin 0.25 microg/ml,97.89%
same,SDL SIR * D/L,[6]; Gentamycin 0.25 microg/ml,0.026
same,SIR,[6]; Gentamycin 0.25 microg/ml,1.223
same,Dead % of This Plot,[6]; Gentamycin 0.5 microg/ml,2.34%
same,Live % of This Plot,[6]; Gentamycin 0.5 microg/ml,97.65%
same,SDL SIR * D/L,[6]; Gentamycin 0.5 microg/ml,0.030
same,SIR,[6]; Gentamycin 0.5 microg/ml,1.238
same,Dead % of This Plot,[6]; [11],4.64%
same,Live % of This Plot,[6]; [11],95.29%
same,Dead % of This Plot,[6]; [12],4.6%
same,Live % of This Plot,[6]; [12],95.2%
same,SDL SIR * D/L,[6]; Gentamycin 1 microg/ml,0.070
same,SIR,[6]; Gentamycin 1 microg/ml,1.437
same,Dead % of This Plot,[6]; Gentamycin 2 microg/ml,6.46%
same,Live % of This Plot,[6]; Gentamycin 2 microg/ml,93.52%
same,SDL SIR * D/L,[6]; Gentamycin 2 microg/ml,0.099
same,SIR,[6]; Gentamycin 2 microg/ml,1.426
same,Dead % of This Plot,[6]; Gentamycin 4 microg/ml,9.86%
same,Live % of This Plot,[6]; Gentamycin 4 microg/ml,90.09%
same,SDL SIR * D/L,[6]; Gentamycin 4 microg/ml,0.188
same,SIR,[6]; Gentamycin 4 microg/ml,1.718
same,Dead % of This Plot,[6]; [13],18.68%
same,Live % of This Plot,[6]; [13],81.28%
same,Dead % of This Plot,[6]; [14],18%
same,Live % of This Plot,[6]; [14],81%
same,SDL SIR * D/L,[6]; Gentamycin 8 microg/ml,0.492
same,SIR,[6]; Gentamycin 8 microg/ml,2.141
same,Dead % of This Plot,[6]; Gentamycin 16 microg/ml,27.28%
same,Live % of This Plot,[6]; Gentamycin 16 microg/ml,72.67%
same,SDL SIR * D/L,[6]; Gentamycin 16 microg/ml,0.893
same,SIR,[6]; Gentamycin 16 microg/ml,2.379
same,Dead % of This Plot,[6]; Gentamycin 32 microg/ml,21.03%
same,Live % of This Plot,[6]; Gentamycin 32 microg/ml,78.95%
same,SDL SIR * D/L,[6]; Gentamycin 32 microg/ml,0.622
same,SIR,[6]; Gentamycin 32 microg/ml,2.336
same,"MIC, micro dilution susceptibility test",[7],8 μgr/ml
"CC1(C)S[C@@H]2[C@H](NC(=O)[C@H](N)c3ccccc3)C(=O)N2[C@H]1C(=O)O [Ampicillin, ampicillin]",MIC,"[1]; Klebsiella pneumoniae, read-out: MIC (SIR approximated to a step function)",4 µg/mL
same,susceptibility by SIR method,[8],resistant
same,Reference Method Susceptibilities I (number of strains),[2],0
same,Reference Method Susceptibilities R (number of strains),[2],26
same,Reference Method Susceptibilities S (number of strains),[2],5
same,Reference Method Susceptibilities I (number of strains),[5],5
same,Reference Method Susceptibilities R (number of strains),[5],9
same,Reference Method Susceptibilities S (number of strains),[5],16

# Reference: patent US10995358B2, “Rapid antibiotic susceptibility test using membrane fluorescence staining and spectral intensity ratio improved by flow cytometry dead to live population ratio” (POCARED Diagnostics LTD., priority 2017, dated 2021)
